Measurements from patent US10961202B2, “Bis-benzimidazole compounds and methods of using the same” (THE SCRIPPS RESEARCH INSTITUTE, priority 2017, dated 2021).

Assays:
[1] = system: r(CUG)12-MBNL1 complex; test: Inhibition of the r(CUG)12-MBNL1 complex measured by TR-FRET; type: biochemical; settings: 80 nM RNA, 60 nM MBNL1-His6
[2] = system: MBNL1 exon 5 inclusion in DM1 myotubes; test: Myotube splicing rescue assay (MBNL1 exon 5 inclusion); type: cell-based, human; settings: 48-hour incubation

SMILES	IC50 ([1]; Table M) [µM]	MBNL1 % splicing rescue at 1 μM [2] [%]	MBNL1 % splicing rescue at 10 μM [2] [%]	IC50 ([1]; Table L) [µM]	MBNL1 % splicing rescue at 5 μM [2] [%]
CN(C)CCNC(=O)c1ccc(-c2nc3cc(-c4ccc5[nH]c(-c6ccc(C(=O)NCCN(C)CCCCc7cn(CCCNC(=O)CCC(=O)NCCCn8cc(CCCCN(C)CCNC(=O)c9ccc(-c%10nc%11cc(-c%12ccc%13[nH]c(-c%14ccc(C(=O)NCCN(C)C)cc%14)nc%13c%12)ccc%11[nH]%10)cc9)nn8)nn7)cc6)nc5c4)ccc3[nH]2)cc1 [Compound 408]	0.51	3.9			
CN1CCC[C@H]1COc1ccc(-c2nc3cc(-c4ccc5[nH]c(-c6ccc(OC[C@@H]7CCCN7C)cc6)nc5c4)ccc3[nH]2)cc1 [Compound 356]	30.4	43.7	59.2		
COCCOc1cc(-c2nc3ccc(OCCCN(C)C)cc3[nH]2)ccc1-c1nc2ccc(OCCCN(C)C)cc2[nH]1 [Compound 258, 3,3′-((2,2′-(2-(2-methoxyethoxy)-1,4-phenylene)bis(1H-benzo[d]imidazole-6,2-diyl))bis(oxy))bis(N,N-dimethylpropan-1-amine)]	31		10.0		
c1ccc(COc2ccc(-c3nc4cc(-c5ccc6[nH]c(-c7ccc(OCc8ccccn8)cc7)nc6c5)ccc4[nH]3)cc2)nc1 [Compound 352]	25.8	3.1	9.6		
CCN(CC)CCNC(=O)c1ccc(-c2nc3cc(-c4ccc5[nH]c(-c6ccc(C(=O)NCCN(CC)CC)cc6)nc5c4)ccc3[nH]2)cc1 [Compound 112]			66.5	5	
c1cc(-c2nc3ccc(N4CCNCC4)cc3[nH]2)ccc1-c1nc2ccc(N3CCNCC3)cc2[nH]1 [Compound 150]			41.0	29.6	
CN(C)CCCOc1cc2nc(-c3ccc(-c4nc5cc(Cl)c(OCCCN(C)C)cc5[nH]4)cc3)[nH]c2cc1Cl [Compound 304, (3-[[6-chloro-2-(4-[5-chloro-6-[3-(dimethylamino)propoxy]-1H-1,3-benzodiazol-2-yl]phenyl)-1H-1,3-benzodiazol-5-yl]oxy]propyl)dimethylamine]	5.8		−42.3		
CCN(CC)CCNC(=O)c1ccc2nc(-c3ccc(-c4nc5ccc(C(=O)NCCN(CC)CC)cc5[nH]4)cc3)[nH]c2c1 [Compound 33]			16.4	8.1	
CN(C)CCCOc1ccc2nc(-c3cc(O)c(-c4nc5ccc(OCCCN(C)C)cc5[nH]4)cc3O)[nH]c2c1 [Compound 278]	38.1	79.7	48.2		
CC(=O)NCCCn1cc(CCCCN(C)CCNC(=O)c2ccc(-c3nc4cc(-c5ccc6[nH]c(-c7ccc(C(=O)NCCN(C)C)cc7)nc6c5)ccc4[nH]3)cc2)nn1 [Compound 402]	10.9				−33.8
CN(C)CCCOc1ccc2nc(-c3ccc(-c4nc5ccc(NC6=NCCN6C6=NCCN6)cc5[nH]4)cc3)[nH]c2c1 [Compound 171]	9.66	11.5	7.8		
CN1CC[C@@H](NC(=O)c2ccc(-c3nc4cc(-c5ccc6[nH]c(-c7ccc(C(=O)N[C@@H]8CCN(C)C8)cc7)nc6c5)ccc4[nH]3)cc2)C1 [Compound 339]	5.96	−3.2	1.8		
CN(C)CCCOc1ccc2[nH]c(-c3ccc(-c4nc5cc(OCCCN(C)C)ccc5[nH]4)c4c3OCCO4)nc2c1 [Compound 316]	20.7		87.1		
CN(C)CCNC(=O)c1ccc2nc(-c3ccc(-c4nc5ccc(NC6=NCCN6)cc5[nH]4)cc3)[nH]c2c1 [Compound 149]			−1.1	6.1	
CN(C)CCNC(=O)c1ccc2nc(-c3ccc(-c4nc5ccc(NC6=NCCN6C6=NCCN6)cc5[nH]4)cc3)[nH]c2c1 [Compound 148]			1.7	7.4	
c1cc2nc(-c3ccc(-c4nc5ccc(NC6=NCCN6C6=NCCN6)cc5[nH]4)cc3)[nH]c2cc1NC1=NCCN1C1=NCCN1 [Compound 77]			4.2	10.8	

SMILES	IC50 ([1]; Table M) [µM]	MBNL1 % splicing rescue at 1 μM [2] [%]	MBNL1 % splicing rescue at 10 μM [2] [%]	IC50 ([1]; Table L) [µM]	MBNL1 % splicing rescue at 5 μM [2] [%]
COc1cc(-c2nc3ccc(OCCCN(C)C)cc3[nH]2)c(OC)cc1-c1nc2ccc(OCCCN(C)C)cc2[nH]1 [Compound 290]	11.1		97.2		
CN(C)CCCOc1cc2[nH]c(-c3ccc(-c4nc5cc(F)c(OCCCN(C)C)cc5[nH]4)c(F)c3)nc2cc1F [Compound 301, (3-[[2-(4-[6-[3-(dimethylamino)propoxy]-5-fluoro-1H-1,3-benzodiazol-2-yl]-3-fluorophenyl)-5-fluoro-1H-1,3-benzodiazol-6-yl]oxy]propyl)dimethylamine]	5.3		19.4		
COc1cc(-c2nc3ccc(SCCCN(C)C)cc3[nH]2)c(OC)cc1-c1nc2cc(SCCCN(C)C)ccc2[nH]1 [Compound 302, 3-((2-(4-(6-((3-(dimethylamino)propyl)thio)-1H-benzo[d]imidazol-2-yl)-2,5-dimethoxyphenyl)-1H-benzo[d]imidazol-5-yl)thio)-N,N-dimethylpropan-1-amine]	28		32.3		
CN(C)CCCOc1ccc(-c2nc3cc(-c4ccc5[nH]c(-c6ccc(C(=O)NCCCn7cc(COCCOCCN(C)C(=O)c8ccc(-c9nc%10cc(-c%11ccc%12[nH]c(-c%13ccc(C(=O)NCCN(C)C)cc%13)nc%12c%11)ccc%10[nH]9)cc8)nn7)cc6)nc5c4)ccc3[nH]2)cc1 [Compound 458]	20.5				−14.7
CN(C)CCCCCOc1ccc(-c2nc3cc(-c4ccc5[nH]c(-c6ccc(OCCCCCN(C)C)cc6)nc5c4)ccc3[nH]2)cc1 [Compound 371]	12.8	79.7	72.4		
c1cc(-c2nc3cc(-c4ccc5[nH]c(-c6ccc(OCCN7CCCC7)cc6)nc5c4)ccc3[nH]2)ccc1OCCN1CCCC1 [Compound 347]	13.5	78.9	98.1		
COc1cc(-c2nc3ccc(OCCCN(C)C)cc3[nH]2)c(O)cc1-c1nc2cc(OCCCN(C)C)ccc2[nH]1 [Compound 308]	1.8		−24.4		
NCCCOc1ccc2nc(-c3ccc(-c4nc5ccc(OCCCN)cc5[nH]4)cc3)[nH]c2c1 [Compound 201, 3,3′-((1,4-phenylenebis(1H-benzo[d]imidazole-2,6-diyl))bis(oxy))bis(propan-1-amine)]	16.4		−13.2		
COc1cc(-c2nc3ccc(OCCCN(C)C)cc3[nH]2)c(OCc2ccccc2)cc1-c1nc2cc(OCCCN(C)C)ccc2[nH]1 [Compound 307, 3-((2-(2-(benzyloxy)-4-(5-(3-(dimethylamino)propoxy)-1H-benzo[d]imidazol-2-yl)-5-methoxyphenyl)-1H-benzo[d]imidazol-6-yl)oxy)-N,N-dimethylpropan-1-amine]	15.8		18.1		
CN(C)CCCOc1ccc2nc(-c3ccc(-c4nc5ccc(OCCCN)cc5[nH]4)cc3)[nH]c2c1 [Compound 205, 3-((2-(4-(6-(3-aminopropoxy)-1H-benzo[d]imidazol-2-yl)phenyl)-1H-benzo[d]imidazol-6-yl)oxy)-N,N-dimethylpropan-1-amine]	27.3		−48.4		
CN(C)CCOC(=O)c1ccc2nc(-c3ccc(-c4nc5ccc(C(=O)OCCN(C)C)cc5[nH]4)c(F)c3)[nH]c2c1 [Compound 270, bis(2-(dimethylamino)ethyl) 2,2′-(2-fluoro-1,4-phenylene)bis(1H-benzo[d]imidazole-6-carboxylate)]	5.81		−19.5		
CN1CCCCC1COc1ccc(-c2nc3cc(-c4ccc5[nH]c(-c6ccc(O)cc6)nc5c4)ccc3[nH]2)cc1 (stereo not drawn) [Compound 358]	19.2	12.4	74.6		
CN(C)CCNC(=O)c1ccc2nc(-c3ccc(-c4nc5ccc(C(=O)NCCN(C)C)cc5[nH]4)cc3)[nH]c2c1 [Compound 16, 2,2′-(1,4-phenylene)bis(N-(2-(dimethylamino)ethyl)-1H-benzo[d]imidazole-6-carboxamide)]			−4.3	6.2	
CN(C)CCCNC(=O)c1ccc(-c2nc3cc(-c4ccc5[nH]c(-c6ccc(C(=O)NCCCN(C)C)cc6)nc5c4)ccc3[nH]2)cc1 [Compound 393]	7.48		17.1		
O=C(NCCN1CCCC1)c1ccc(-c2nc3cc(-c4ccc5[nH]c(-c6ccc(C(=O)NCCN7CCCC7)cc6)nc5c4)ccc3[nH]2)cc1 [Compound 115]			57.5	7.1	
CN(C)CCCOc1ccc(-c2nc3cc(-c4ccc5[nH]c(-c6ccc(C(=O)NCCCn7cc(COCCOCCOCCOCCN(C)C(=O)c8ccc(-c9nc%10cc(-c%11ccc%12[nH]c(-c%13ccc(C(=O)NCCN(C)C)cc%13)nc%12c%11)ccc%10[nH]9)cc8)nn7)cc6)nc5c4)ccc3[nH]2)cc1 [Compound 459]	27.3				−2.6
